molecular target: T1, h FPR2 (Homo sapiens, UniProt P25090); assay: Agonistic activity in hFPR2-Aq-CHO cells (FLIPR Calcium 5 fluorescence assay); format: cell-based; conditions: 11 point half log dilution, final assay concentration from 10µM
T1 construct: expressed in transfected cells
T1 sequence (P25090 1-351): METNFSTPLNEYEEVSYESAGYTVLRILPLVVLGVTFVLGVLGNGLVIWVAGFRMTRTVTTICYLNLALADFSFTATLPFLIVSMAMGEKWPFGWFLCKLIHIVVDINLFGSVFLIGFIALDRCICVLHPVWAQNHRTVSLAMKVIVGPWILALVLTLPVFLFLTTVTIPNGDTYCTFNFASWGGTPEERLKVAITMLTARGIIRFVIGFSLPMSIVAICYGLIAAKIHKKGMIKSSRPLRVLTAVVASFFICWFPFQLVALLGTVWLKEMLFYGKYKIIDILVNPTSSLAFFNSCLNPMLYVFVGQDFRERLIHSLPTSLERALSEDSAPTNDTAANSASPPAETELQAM
Protocol: After washing, the cells are plated at 10,000 cells per well in 40 µL complete medium in a 384-well sterile clear bottom black plate and incubated in a 5% CO2 incubator at 37°C for 18 hours. Plating media is removed from each well by decanting and gentle tapping before 30 µL of 0.5X Calcium 5 dye solution (0.5X FLIPR Calcium 5 dye (Molecular devices, R8186)); HBSS; 20mM HEPES; 2.5mM Probenecid; 0.025% Pluronic F-127; pH adjusted to 7.4) is added to each well and the plate is then incubated at 37°C for 30 minutes. For the assay the plate is equilibrated at room temperature for 10 minutes before placing it in the FLIPR. Compounds are dissolved in DMSO and serially diluted over an 11 point half log (3.16 fold) dilution (2 mM to 20 nM). Compounds are then diluted 1:50 in assay buffer (HBSS; 20mM HEPES; 2.5mM Probenecid; 0.05% gelatin; 0.1% BSA; pH adjusted to 7.4) just before performing the assay. Compounds are finally added to the respective wells of the cell plate (final assay concentration 10 µM to 100 pM) using the FLIPR (e.g. FLIPR-Tetra, Molecular Devices) and fluorescence readings are captured for 5 minutes. The increase in fluorescence from the basal reading in the presence of the compounds is compared with that of the control wells (wells having no compound) to calculate the activity of the compounds. The EC50 values of the compounds can be determined using e.g. Graph pad Prism software.
Assay method for measuring agonistic activity of compounds in hFPR2-Aq-CHO cell
Cryo-vial containing 6x10^6 cells (hFPR1-Gα15-CHO or hFPR2-Aq-CHO) was thawed in a 37°C water bath. Cells were suspended in 10ml of respective complete growth media (F12(1X)HAM media (Gibco; Cat#11765); 10% HI-FBS (Gibco; Cat#10082); 0.4 mg/ml Geneticin (Gibco; Cat#10131); 0.25 mg/ml Zeocin (Invitrogen; Cat#R25001)) in a 15ml centrifuge tube. The cell viability was checked with the help of Trypan Blue dye. Upon washing the cells, those were plated in a 384-well sterile clear bottom black plate (Greiner Bioone Cat# 781091) so that, each well contained 10,000 cells in 40µl complete growth media. The plate was incubated in a 5% CO2 incubator at 37°C for 18 hours. Before assay on the next day, the cell plating media was removed from each well of the plate by decanting and gentle tapping. 30µl of 0.5X Calcium 5 dye solution (0.5X FLIPR Calcium 5 dye (Molecular devices Cat# R8186); HBSS (Invitrogen; Cat#14025); 20mM HEPES (Sigma; Cat#H0887); 2.5mM Probenecid (Sigma; Cat#P8761); 0.025% Pluronic F-127 (Sigma; Cat#P2443); pH adjusted to 7.4) was added to each well. The plate was then incubated at 37°C for 30 minutes. Following which the plate was equilibrated at room temperature for 10 minutes before placing it in a 384 well FLIPR for assay. Compounds were dissolved in DMSO and serially diluted following 11 point half log (3.16 fold) dilution with a starting concentration of 2mM (Final assay concentration 10µM). Aliquots of above mentioned each dilution was mixed with assay buffer (HBSS (Invitrogen; Cat#14025); 20mM HEPES (Sigma; Cat#H0887); 2.5mM Probenecid (Sigma; Cat#P8761); 0.05% gelatin (Sigma; Cat#G1890); 0.1% BSA (Sigma; Cat#A3059); pH adjusted to 7.4) just before performing the assay. Compounds were added to the respective wells of the assay ready cell plate with the help of the FLIPR (FLIPR Tetra) and fluorescence readings were captured for 5 minutes to measure any agonistic response of the compounds. The increase in fluorescence readings from the basal reading in presence of the compounds were compared with that of the control wells (wells having no compound) to calculate the agonistic activity of the compounds. The EC50 values of the compounds were determined using the Graph pad Prism software.

| SMILES | EC50 [nM] |
| --- | --- |
| COc1ccc([C@@H]2CN(Cc3cncc(C)c3)CC[C@H]2NC(=O)Nc2ccc(Cl)cc2)nc1 (relative stereo) [Ex-64, trans-1-(4-chlorophenyl)-3-(3-(5-methoxypyridin-2-yl)-1-((5-methylpyridin-3-yl)methyl)piperidin-4-yl)urea] | 0.06 |
| COc1ccc([C@@H]2CN(Cc3ccc(C4CC4)nc3)CC[C@H]2NC(=O)Nc2ccc(Cl)cc2)nc1 (relative stereo) [Ex-65, trans-1-(4-chlorophenyl)-3-[1-[(6-cyclopropylpyridin-3-yl)methyl]-3-(5-methoxypyridin-2-yl)piperidin-4-yl]urea] | 0.09 |
| COc1ccc([C@@H]2CN(Cc3cnc(OC)nc3)CC[C@H]2NC(=O)Nc2ccc(Cl)cc2)nc1 (relative stereo) [Ex-66, trans-1-(4-chlorophenyl)-3-[3-(5-methoxypyridin-2-yl)-1-[(2-methoxypyrimidin-5-yl)methyl]piperidin-4-yl]urea] | 0.2 |
| COc1ccc([C@@H]2CN(Cc3ccc(C)nc3)CC[C@H]2NC(=O)Nc2ccc(Cl)cc2)nc1 (relative stereo) [Ex-67, trans-1-(4-chlorophenyl)-3-[-3-(5-methoxypyridin-2-yl)-1-[(6-methylpyridin-3-yl)methyl]piperidin-4-yl]urea] | 0.08 |
| COc1ccc([C@H]2CN(Cc3cncc(F)c3)CC[C@@H]2NC(=O)Nc2ccc(Cl)cc2)nc1 (relative stereo) [Ex-68, trans-(4-chlorophenyl)-3-[1-[(5-fluoropyridin-3-yl)methyl]-3-(5-methoxypyridin-2-yl)piperidin-4-yl]urea] | 0.09 |
| COc1ccc([C@@H]2CN(Cc3cncc(Cl)c3)CC[C@H]2NC(=O)Nc2ccc(Cl)cc2)nc1 (relative stereo) [Ex-69, trans-1-(4-chlorophenyl)-3-[1-[(5-chloropyridin-3-yl)methyl]-3-(5-methoxypyridin-2-yl)piperidin-4-yl]urea] | 0.07 |
| O=C(Nc1ccc(Cl)cc1)N[C@@H]1CCN(Cc2cncc(F)c2)C[C@H]1c1ccc(Cl)s1 (relative stereo) [Ex-70, trans-1-(4-chlorophenyl)-3-(3-(5-chlorothiophen-2-yl)-1-((5-fluoropyridin-3-yl)methyl)piperidin-4-yl)urea] | 2 |
| O=C(Nc1ccc(Cl)cc1)N[C@@H]1CCN(Cc2cncc(Cl)c2)C[C@H]1c1ccc(Cl)s1 (relative stereo) [Ex-71, trans-1-(4-chlorophenyl)-3-(1-((5-chloropyridin-3-yl)methyl)-3-(5-chlorothiophen-2-yl)piperidin-4-yl)urea] | 2 |
| Cc1cncc(CN2CC[C@@H](NC(=O)Nc3ccc(Cl)cc3)[C@H](c3ccc(Cl)s3)C2)c1 (relative stereo) [Ex-72, trans-1-(4-chlorophenyl)-3-(3-(5-chlorothiophen-2-yl)-1-((5-methylpyridin-3-yl)methyl)piperidin-4-yl)urea] | 2 |
| O=C(Nc1ccc(Cl)cc1)N[C@@H]1CCN(Cc2ccc(C3CC3)nc2)C[C@H]1c1ccc(Cl)s1 (relative stereo) [Ex-73, trans-1-(4-chlorophenyl)-3-[3-(5-chlorothiophen-2-yl)-1-[(6-cyclopropylpyridin-3-yl)methyl]piperidin-4-yl]urea] | 4 |
| O=C(Nc1ccc(Cl)cc1)N[C@@H]1CCN(Cc2ccc(C(F)(F)F)nc2)C[C@H]1c1ccc(Cl)s1 (relative stereo) [Ex-74, trans-1-(4-chlorophenyl)-3-[3-(5-chlorothiophen-2-yl)-1-{[6-(trifluoromethyl)pyridin-3-yl]methyl}piperidin-4-yl]urea] | 2 |
| COc1ncc(CN2CC[C@@H](NC(=O)Nc3ccc(Cl)cc3)[C@H](c3ccc(Cl)s3)C2)cn1 (relative stereo) [Ex-75, trans-1-(4-chlorophenyl)-3-[3-(5-chlorothiophen-2-yl)-1-[(2-methoxypyrimidin-5-yl)methyl]piperidin-4-yl]urea] | 3 |
| Cc1ncc(CN2CC[C@@H](NC(=O)Nc3ccc(Cl)cc3)[C@H](c3ccc(Cl)s3)C2)cn1 (relative stereo) [Ex-76, trans-1-(4-chlorophenyl)-3-[3-(5-chlorothiophen-2-yl)-1-[(2-methylpyrimidin-5-yl)methyl]piperidin-4-yl]urea] | 2 |
| COCCC(=O)N1CC[C@@H](NC(=O)Nc2ccc(Cl)cc2)[C@H](c2ccc(OC)cn2)C1 (relative stereo) [Ex-79, trans-1-(4-chlorophenyl)-3-[5-methoxy-1'-(3-methoxy-propionyl)-1',2',3',4',5',6'-hexahydro-[2,3']bipyridinyl-4'-yl]-urea] | 23 |
| COc1ccc([C@@H]2CN(C(=O)C3CCC(OC)CC3)CC[C@H]2NC(=O)Nc2ccc(Cl)cc2)nc1 (relative stereo) [Ex-81, trans-1-(4-chloro-phenyl)-3-[5-methoxy-1'-(4-methoxy-cyclohexanecarbonyl)-1',2',3',4',5',6'-hexahydro-[2,3']bipyridinyl-4'-yl]-urea] | 13 |
| Cc1ccc(CN2CC[C@@H](NC(=O)Nc3ccc(Cl)cc3)[C@H](c3ccc(Cl)s3)C2)cn1 (relative stereo) [Ex-87, trans-1-(4-chlorophenyl)-3-[3-(5-chlorothiophen-2-yl)-1-[(6-methylpyridin-3-yl)methyl]piperidin-4-yl]urea] | 1 |
| COc1ccc([C@@H]2CN(C(=O)C3CCNCC3)CC[C@H]2NC(=O)Nc2ccc(Cl)cc2)nc1 (relative stereo) [Ex-88, trans-1-(4-chloro-phenyl)-3-[5-methoxy-1'-(piperidine-4-carbonyl)-1',2',3',4',5',6'-hexahydro-[2,3']bipyridinyl-4'-yl]-urea] | 1.2 |
| COc1ccc([C@@H]2CN(C(=O)C3CCC(O)CC3)CC[C@H]2NC(=O)Nc2ccc(Cl)cc2)nc1 (relative stereo) [Ex-90, trans-1-(4-chloro-phenyl)-3-[1'-(4-hydroxy-cyclohexanecarbonyl)-5-methoxy-1',2',3',4',5',6'-hexahydro-[2,3']bipyridinyl-4'-yl]-urea] | 32 |
| COCCCN1CC[C@@H](NC(=O)Nc2ccc(Cl)cc2)[C@H](c2ccc(Cl)s2)C1 (relative stereo) [Ex-91, trans-1-(4-chloro-phenyl)-3-[3-(5-chloro-thiophen-2-yl)-1-(3-methoxy-propyl)-piperidin-4-yl]-urea] | 11 |
| COc1ccc([C@@H]2CN(C(=O)C3COC3)CC[C@H]2NC(=O)Nc2ccc(Cl)cc2)nc1 (relative stereo) [Ex-92, trans-1-(4-chloro-phenyl)-3-[5-methoxy-1'-(oxetane-3-carbonyl)-1',2',3',4',5',6'-hexahydro-[2,3']bipyridinyl-4'-yl]-urea] | 4 |

same assay, conditions: agonistic response at 0.1µM

| SMILES | activation at 0.1 µM [%] |
| --- | --- |
| O=C(Nc1ccc(Cl)cc1)N[C@@H]1CCN(CC2CCOCC2)C[C@H]1c1ccc(Cl)s1 (relative stereo) [Ex-86, trans-1-(4-chlorophenyl)-3-(3-(5-chlorothiophen-2-yl)-1-((tetrahydro-2H-pyran-4-yl)methyl)piperidin-4-yl)urea] | 19 |

Reference: EP3789378A1, “PIPERIDINES OR PIPERIDONES SUBSTITUTED WITH UREA AND HETEROARYL” (Grünenthal GmbH, priority 2019, dated 2021)
